Key:
[1] = Test 4: metabolic stability test in human hepatic microsome; format: in vitro ADME; conditions: 0.1 mg/mL microsome, 0.1 μmol/L compound, 37° C., 30 minutes
Outline: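 LC-MS quantified remaining parent after 30 min, 37° C, in pH 7.4 25 mmol/L phosphate containing 0.1 mg/mL human hepatic microsomes, 3.2 mmol/L NADPH and 0.1 μmol/L test compound. Value given as −LN(residual ratio)/30/0.1, mL/min/mg protein.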

[2] = target: human D2 receptor (Homo sapiens (Human), UniProt P14416); test: Test 1: binding activity for human D2 receptor ([3H]Spiperone, CHO cell membrane fraction); conditions: for Ki: human D2 receptor, [3H]Spiperone; for D2 Ki/5-HT1A Ki / D2 Ki/5-HT2A Ki: selectivity ratio
Sequence of human D2 receptor (P14416 whole entry): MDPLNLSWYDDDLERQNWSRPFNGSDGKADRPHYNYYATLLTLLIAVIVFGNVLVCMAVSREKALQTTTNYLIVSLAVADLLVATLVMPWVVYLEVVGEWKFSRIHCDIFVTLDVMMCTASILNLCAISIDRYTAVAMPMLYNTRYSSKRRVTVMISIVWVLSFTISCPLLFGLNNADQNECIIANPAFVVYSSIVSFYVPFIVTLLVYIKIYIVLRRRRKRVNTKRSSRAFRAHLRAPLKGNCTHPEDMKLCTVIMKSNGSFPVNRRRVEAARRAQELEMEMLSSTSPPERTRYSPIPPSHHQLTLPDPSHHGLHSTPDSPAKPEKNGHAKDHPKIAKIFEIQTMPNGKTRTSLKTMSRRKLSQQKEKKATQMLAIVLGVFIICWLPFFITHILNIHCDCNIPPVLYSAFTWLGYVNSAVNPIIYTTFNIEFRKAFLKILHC
Outline: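 Compound displacement of [3H]ketanserin at 5-HT2A or [3H]spiperone at D2 was measured in CHO membrane fractions after 60 min at room temperature, with filtration and scintillation counting. IC50 was converted to Ki by Cheng–Prusoff using ligand concentration and Kd from saturation binding.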

[3] = target: T1, human 5-HT1A receptor (Homo sapiens (Human), UniProt P08908); test: Test 2: agonist activity for human 5-HT1A receptor ([35S]GTPγS binding); format: biochemical; conditions: for EC50: [35S]GTPγS binding, concentration at which half the activity of Emax was obtained; for Emax at 10 µM: agonist activity in the presence of 10 μM of compound, relative to 100 μmol/L 5-HT
T1 sequence (P08908 whole entry): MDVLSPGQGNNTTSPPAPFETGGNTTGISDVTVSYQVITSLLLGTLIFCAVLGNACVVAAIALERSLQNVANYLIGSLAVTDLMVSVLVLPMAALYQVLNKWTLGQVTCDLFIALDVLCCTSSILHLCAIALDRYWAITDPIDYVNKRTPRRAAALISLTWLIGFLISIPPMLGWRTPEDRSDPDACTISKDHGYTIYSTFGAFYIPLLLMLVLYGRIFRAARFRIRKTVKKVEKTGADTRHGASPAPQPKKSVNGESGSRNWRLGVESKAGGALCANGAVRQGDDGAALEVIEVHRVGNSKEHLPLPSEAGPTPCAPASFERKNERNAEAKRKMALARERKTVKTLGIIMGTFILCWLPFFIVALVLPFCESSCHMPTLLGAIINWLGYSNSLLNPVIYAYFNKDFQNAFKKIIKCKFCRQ
Outline: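 [35S]GTPγS binding read-out: after 60 min at room temperature with test compound in GDP buffer, human 5-HT1A receptor CHO membranes were vacuum-filtered and retained radioactivity scintillation-counted. Agonist activity calculated by formula.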

[4] = target: T1, human 5-HT1A receptor; test: Test 1: binding activity for human 5-HT1A receptor ([3H]8-OH-DPAT, CHO cell membrane fraction)
Outline: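 Membranes incubated with [3H]8-OH-DPAT and compound for 60 min at room temperature, then filtered on polyethylenimine-coated glass-fibre plates and counted by liquid scintillation. IC50 from Hill analysis; Ki = IC50/(1+S/Kd), Kd from saturation binding on the same membranes.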

[5] = target: T2, human 5-HT2A receptor (Homo sapiens (Human), UniProt P28223); test: Test 1: binding activity for human 5-HT2A receptor ([3H]Ketanserin, CHO cell membrane fraction)
T2 sequence (P28223 whole entry): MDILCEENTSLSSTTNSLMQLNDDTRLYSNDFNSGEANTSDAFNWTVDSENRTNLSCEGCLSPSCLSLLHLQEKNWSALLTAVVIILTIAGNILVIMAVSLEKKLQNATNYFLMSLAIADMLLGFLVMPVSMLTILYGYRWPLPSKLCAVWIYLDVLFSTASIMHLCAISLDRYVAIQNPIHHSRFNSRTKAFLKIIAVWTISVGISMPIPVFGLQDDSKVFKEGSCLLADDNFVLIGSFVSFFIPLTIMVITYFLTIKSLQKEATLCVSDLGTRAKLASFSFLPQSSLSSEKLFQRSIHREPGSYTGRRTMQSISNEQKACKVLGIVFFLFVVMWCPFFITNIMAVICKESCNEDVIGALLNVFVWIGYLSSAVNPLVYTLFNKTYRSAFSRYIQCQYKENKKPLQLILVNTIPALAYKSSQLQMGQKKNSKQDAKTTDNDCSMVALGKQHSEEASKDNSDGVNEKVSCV
Method: Test 1: Evaluation of Binding Activity for Human 5-HT1A Receptor, Human 5-HT2A Receptor, and Human D2 Receptor
Binding affinity of the present compound for human 5-HT1A receptor, human 5-HT2A receptor, and human D2 receptor was measured by the following procedures.
Each mixture was incubated at room temperature for 60 minutes. Then, the mixture was added quickly on a glassfiber filter plate (Multiscreen FB, Millipore, Inc.) coated with 0.3% aqueous polyethylenimine, and vacuum-filtered. Radioactivity remaining on the filter was measured with a liquid scintillation counter (PerkinElmer, Inc.). Binding inhibition rate was calculated from the following formula.
Ki of each compound was calculated from the following formula. Binding inhibition constant (Ki)=IC50/(1+S/Kd) wherein S is concentration of ligand; Kd is a binding dissociation constant of ligand to membrane, which is calculated from a saturated binding experiment conducted with the same cell membrane. A small Ki value means strong binding ability to a receptor.

[6] = target: T2, human 5-HT2A receptor; test: Test 3: antagonist activity for human 5-HT2A receptor (aequorin luminescence, CHO-K1 cells); format: cell-based; conditions: CHO-K1 cells, 1 nmol/L 5-HT
Outline: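 CHO-K1 cells transiently co-expressing aequorin, Gα16 and receptor; compound in DMSO added and luminescence recorded on FDSS/μCELL.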

[7] = target: hERG channel (Homo sapiens (Human), UniProt Q12809); test: Test 6-1: inhibitory activity for hERG channel (auto patch clamp, Qpatch); format: cell-based; conditions: for hERG inhibition IC50 (nmol/L)/5-HT1A Ki (nmol/L): ratio of hERG IC50 to 5-HT1A Ki; for hERG inhibition IC50 (nmol/L)/5-HT2A Ki (nmol/L): ratio of hERG IC50 to 5-HT2A Ki; for IC50: whole cell auto patch clamp, hERG-CHO cells, read-out: hERG inhibition IC50
Sequence of hERG channel (Q12809 whole entry): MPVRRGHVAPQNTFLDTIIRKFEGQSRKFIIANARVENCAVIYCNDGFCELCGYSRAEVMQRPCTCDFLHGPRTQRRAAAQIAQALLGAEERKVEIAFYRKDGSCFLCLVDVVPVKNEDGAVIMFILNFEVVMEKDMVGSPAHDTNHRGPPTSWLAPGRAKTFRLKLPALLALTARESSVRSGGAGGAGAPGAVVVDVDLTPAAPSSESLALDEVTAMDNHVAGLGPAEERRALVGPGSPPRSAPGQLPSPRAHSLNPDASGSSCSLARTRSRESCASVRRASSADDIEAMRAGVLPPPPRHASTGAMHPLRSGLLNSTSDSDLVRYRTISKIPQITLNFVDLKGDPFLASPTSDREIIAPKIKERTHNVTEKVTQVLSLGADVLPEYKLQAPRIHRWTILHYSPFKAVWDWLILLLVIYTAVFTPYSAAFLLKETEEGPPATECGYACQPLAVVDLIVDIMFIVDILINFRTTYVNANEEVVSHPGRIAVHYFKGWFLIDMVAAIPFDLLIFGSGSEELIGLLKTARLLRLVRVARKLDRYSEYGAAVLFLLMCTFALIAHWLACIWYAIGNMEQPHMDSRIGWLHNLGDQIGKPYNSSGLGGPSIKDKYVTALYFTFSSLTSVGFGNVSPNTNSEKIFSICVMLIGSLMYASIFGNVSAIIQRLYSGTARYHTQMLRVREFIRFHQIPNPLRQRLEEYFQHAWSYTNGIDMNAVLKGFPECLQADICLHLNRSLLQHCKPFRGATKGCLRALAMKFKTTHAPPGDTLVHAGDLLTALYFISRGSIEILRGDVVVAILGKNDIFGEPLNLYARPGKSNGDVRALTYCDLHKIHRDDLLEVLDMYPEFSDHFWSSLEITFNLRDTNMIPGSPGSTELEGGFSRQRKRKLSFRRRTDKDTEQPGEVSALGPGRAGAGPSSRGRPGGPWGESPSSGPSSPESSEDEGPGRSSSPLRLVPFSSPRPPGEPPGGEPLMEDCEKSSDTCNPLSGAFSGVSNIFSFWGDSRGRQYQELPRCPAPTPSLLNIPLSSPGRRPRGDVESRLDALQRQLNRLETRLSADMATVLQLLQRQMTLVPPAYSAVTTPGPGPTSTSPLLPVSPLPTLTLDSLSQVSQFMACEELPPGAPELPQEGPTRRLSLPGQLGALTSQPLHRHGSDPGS
Outline: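 Whole-cell patch clamp on an automated system using CHO cells stably expressing human hERG (IKr); 15 s pulse interval. Four increasing compound concentrations applied cumulatively; mean peak tail current from last 3 stimulations per concentration used. IC50 from inhibition versus pre-compound current, fitted by Hill equation.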

SMILES	Metabolic stability in human hepatic microsome [1] [mL/min/mg protein]	Ki [2] [nM]	D2 Ki/5-HT1A Ki [2]	D2 Ki/5-HT2A Ki [2]	EC50 [3] [nM]	Emax at 10 µM [3] [%]	Ki [4] [nM]	Ki [5] [nM]	IC50 ([6]; aequorin luminescence) [nM]	hERG inhibition IC50 (nmol/L)/5-HT1A Ki (nmol/L) [7]	hERG inhibition IC50 (nmol/L)/5-HT2A Ki (nmol/L) [7]	IC50 [7] [nM]	IC50 [6] [nM]
Cc1nc2c(o1)CCCN(CCN1CCC(c3noc4ccccc34)CC1)C2=O [Example 157]	<0.05	641	302.1	44.2	52.7	47	2.12	14.5	115	754	110	1600	
Cc1cncc2c1CCN(CCN1CCN(c3noc4ccccc34)CC1)C2=O [Example 137]	<0.05	1080	5.8	96.4	4660	19	186	11.2	2.4	41	686	7700	
O=C1c2cnc(OC3COC3)cc2CCN1CCN1CCN(c2nsc3ccccc23)CC1 [Example 111, 2-{2-[4-(1,2-Benzoisothiazol-3-yl)piperazin-1-yl]ethyl}-6-[(oxetan-3-yl)oxy]-3,4-dihydro-2,7-naphthyridin-1(2H)-one]	0.254	1010	1105	530	4.58	51	0.91	1.9		2052	984	1900	17
O=c1c2cnccc2ccn1CCN1CCN(c2noc3ccccc23)CC1 [Example 116]	0.1	> 10000			882	60	128	26	49.7			5300	
Cn1ncc2c1CCC(CCN1CCC(c3noc4ccccc34)CC1)C2=O (stereo not drawn) [Example 28]	0.017				7.59	94	13.8	1.4				1400	9.8
Cc1cc2ccn(CCN3CCN(c4noc5ccccc45)CC3)c(=O)c2cn1 [Example 113, 2-{2-[4-(1,2-Benzoisoxazol-3-yl)piperazin-1-yl]ethyl}-6-methyl-2,7-naphthyridin-1(2H)-one]	0.079				16	67	14.4	3.7				7000	8.63
CC1(CCN2CCN(c3noc4ccccc34)CC2)CCc2cccnc2C1=O (stereo not drawn) [Example 145]	0.302				55.1	58	38.1	1.15	19			> 3000	
Cn1ncc2c1CCN(CCN1CCN(c3noc4ccccc34)CC1)C2=O [Example 131]	<0.05	> 10000			405	48	279	12	9.53			> 3000	
O=C1c2ncoc2CCN1CCN1CCC(c2noc3ccccc23)CC1 [Example 190, 5-{2-[4-(1,2-Benzoisoxazol-3-yl)piperidin-1-yl]ethyl}-6,7-dihydro[1,3]oxazolo[4,5-c]pyridin-4(5H)-one]	<0.05	2460	49.3	47.9	7210	11	50	51.4	237	32	31	1600	
O=C1c2cnccc2CCN1CCN1CCN(c2nsc3ccccc23)CC1 [Example 18]	0.124				18	90	10.6	3.7				5900	36
Cn1ccc2c1CCCN(CCN1CCC(c3noc4ccccc34)C1)C2=O (stereo not drawn) [Example 175]	0.125	3480	195.2	251.4	667	36	17.8	13.8	307	197	253	3500	
Cn1ncc2c1C(=O)N(CCN1CCC(c3noc4ccccc34)CC1)CC2 [Example 96, 6-{2-[4-(1,2-Benzoisoxazol-3-yl)piperidin-1-yl]ethyl}-1-methyl-1,4,5,6-tetrahydro-7H-pyrazolo[3,4-c]pyridin-7-one]	0.019	103	9	14	65.5	33	11.8	7.25		97	159	1200	20
Cc1nc2c(o1)C(=O)N(CCN1CCC(c3noc4ccccc34)CC1)CCC2 [Example 154]	<0.05	718	35.6	54.9	45.1	58	20.2	13.1	316	35	54	700	
Cc1ncc2c(n1)CCN(CCN1CCN(c3noc4ccccc34)CC1)C2=O [Example 179]	<0.05	> 10000	>35.3	>437.6			283	22.9	70.8	>35	>438	> 10000	
Cc1nc2c(o1)C(=O)N(CCN1CCC(c3noc4ccccc34)CC1)CC2 [Example 35, 5-{2-[4-(1,2-Benzoisoxazol-3-yl)piperidin-1-yl]ethyl}-2-methyl-6,7-dihydro[1,3]oxazolo[5,4-c]pyridin-4(5H)-one]	<0.01	1290	391	139	72	68	3.3	9.3		453	161	1500	74

Reference: US10745401B2, “Condensed lactam derivative” (Sumitomo Dainippon Pharma Co., Ltd., priority 2018, dated 2020)
